According to US8618175B2, “Ultrasound medical gel composition etherified hydroxyethylcellulose” (Brussels Ventures Corp., priority 2010, dated 2013):

Assay: Spreading ability of solvents, drop on Standard No. 1 filter paper
Assay type: physicochemical
Conditions: for Drop Diameter After Set period of time 0(h) / Drop Diameter After Set period of time 0.5(h) / Drop Diameter After Set period of time 1(h) / Drop Diameter After Set period of time 8(h): average of 3 trials
Protocol: The spreading ability of various solvents was measured. Solvents including an antimicrobial agent, as well as solvents without an antimicrobial agent, were tested. Benzalkonium chloride was used as an antimicrobial agent. Spreading ability was measured by dropping one drop of liquid onto Standard No. 1 filter paper, and measuring the diameter of each drop at various time periods. The results are shown below in table 3, and reflect the average results obtained after 3 trials for each sample.

OCC(O)CO [Glycerin 99%, Glycerin]
% Increase in drop diameter after 8 h (antimicrobial agent 0 wt %): 357%
Drop Diameter After Set period of time 0(h) (antimicrobial agent 0 wt %): 7.0
Drop Diameter After Set period of time 0.5(h) (antimicrobial agent 0 wt %): 22.3
Drop Diameter After Set period of time 1(h) (antimicrobial agent 0 wt %): 23.6
Drop Diameter After Set period of time 8(h) (antimicrobial agent 0 wt %): 32.0
% Increase in drop diameter after 8 h (benzalkonium chloride 3.2 wt %): 632%
Drop Diameter After Set period of time 0(h) (benzalkonium chloride 3.2 wt %): 4.0
Drop Diameter After Set period of time 0.5(h) (benzalkonium chloride 3.2 wt %): 22.6
Drop Diameter After Set period of time 1(h) (benzalkonium chloride 3.2 wt %): 24.0
Drop Diameter After Set period of time 8(h) (benzalkonium chloride 3.2 wt %): 29.3

OCCCO [Propanediol (Zemea ™), Propanediol]
% Increase in drop diameter after 8 h (antimicrobial agent 0 wt %): 263%
Drop Diameter After Set period of time 0(h) (antimicrobial agent 0 wt %): 10.6
Drop Diameter After Set period of time 0.5(h) (antimicrobial agent 0 wt %): 32
Drop Diameter After Set period of time 1(h) (antimicrobial agent 0 wt %): 33.5
Drop Diameter After Set period of time 8(h) (antimicrobial agent 0 wt %): 38.5
% Increase in drop diameter after 8 h (benzalkonium chloride 3.2 wt %): 249%
Drop Diameter After Set period of time 0(h) (benzalkonium chloride 3.2 wt %): 10.6
Drop Diameter After Set period of time 0.5(h) (benzalkonium chloride 3.2 wt %): 30.3
Drop Diameter After Set period of time 1(h) (benzalkonium chloride 3.2 wt %): 32.3
Drop Diameter After Set period of time 8(h) (benzalkonium chloride 3.2 wt %): 37.0

CC(O)CO (stereo not drawn) [Propylene Glycol]
% Increase in drop diameter after 8 h (antimicrobial agent 0 wt %): 120%
Drop Diameter After Set period of time 0(h) (antimicrobial agent 0 wt %): 10.0
Drop Diameter After Set period of time 0.5(h) (antimicrobial agent 0 wt %): 28.0
Drop Diameter After Set period of time 1(h) (antimicrobial agent 0 wt %): 29.0
Drop Diameter After Set period of time 8(h) (antimicrobial agent 0 wt %): 22.0
% Increase in drop diameter after 8 h (benzalkonium chloride 3.2 wt %): 100%
Drop Diameter After Set period of time 0(h) (benzalkonium chloride 3.2 wt %): 12.3
Drop Diameter After Set period of time 0.5(h) (benzalkonium chloride 3.2 wt %): 28.0
Drop Diameter After Set period of time 1(h) (benzalkonium chloride 3.2 wt %): 29.0
Drop Diameter After Set period of time 8(h) (benzalkonium chloride 3.2 wt %): 24.6
